Assay results published in PMC8286840, “Identifying SARS-CoV-2 antiviral compounds by screening for small molecule inhibitors of Nsp3 papain-like protease” (Biochemical Journal, 2021).
Counter-ions that a name gives are not always drawn. Like-named read-outs stand apart in the source and are kept apart here. Where a SMILES comes first, the peptide text is derived from it. [ ]: non-standard residue; d: D form. The star is where a group is joined. Hexanoyl = CCCCCC(=O)*; Ahx = NCCCCCC(=O)O

How the values were obtained:
[1] = target: T1, SARS-CoV-2 PLpro (nsp3 1564–1878) (Severe acute respiratory syndrome coronavirus 2, UniProt P0DTD1); assay: biochemical; set-up: FRET-quenched peptide (Pro3) cleavage by PLpro, 10 min pre-incubation, slope over 20 min, normalised to no-compound control; details: low concentration screen, read-out: % of control remaining
[2] = target: T1, SARS-CoV-2 PLpro (nsp3 1564–1878); assay: biochemical; set-up: FRET-quenched peptide (Pro3) cleavage by PLpro, 10 min pre-incubation, slope over 20 min, normalised to no-compound control; details: high concentration screen, read-out: % of control remaining

## C[C@@H](CN1CC(=O)NC(=O)C1)N1CC(=O)NC(=O)C1 [Dexrazoxane HCl]
[1]; Well no.=5139
  remaining activity at 1.25 µM: 101%
[2]; Well no.=5139
  remaining activity at 3.75 µM: 104%

## COc1ccc2c(c1)[C@]13CCCC[C@@H]1[C@H](C2)N(C)CC3 [Dextromethorphan (hydrobromide hydrate)]
[1]; Well no.=8295
  remaining activity at 1.25 µM: 101%
[2]; Well no.=8295
  remaining activity at 3.75 µM: 96.5%

## COc1ccc2c(c1)[C@]13CCCC[C@@H]1[C@H](C2)N(C)CC3 [Dextromethorphan hydrobromide monohydrate]
[1]; Well no.=447
  remaining activity at 1.25 µM: 100%
[2]; Well no.=447
  remaining activity at 3.75 µM: 104%

## COc1ccc2c(c1)[C@]13CCCC[C@@H]1[C@H](C2)N(C)CC3 [Dextromethorphan]
[1]; Well no.=1976
  remaining activity at 1.25 µM: 98.8%
[2]; Well no.=1976
  remaining activity at 3.75 µM: 101%

## CN1CC[C@@]23CCCC[C@@H]2[C@@H]1Cc1ccc(O)cc13 [Dextrorphan D-tartrate]
[1]; Well no.=592
  remaining activity at 1.25 µM: 101%
[2]; Well no.=592
  remaining activity at 3.75 µM: 103%

## OC[C@H]1OC(O)[C@H](O)[C@@H](O)[C@@H]1O (some centres unmarked) [Dextrose]
[1]; Well no.=6497
  remaining activity at 1.25 µM: 97.3%
[2]; Well no.=6497
  remaining activity at 3.75 µM: 99.3%

## CC(=O)N(C(C)=O)c1ccc(N=Nc2ccccc2C)cc1C [Diacetazotol]
[1]; Well no.=7840
  remaining activity at 1.25 µM: 98.8%
[2]; Well no.=7840
  remaining activity at 3.75 µM: 97.2%

## O=c1c2ccccc2[nH]c(=S)n1CCN1CCC(=C(c2ccc(F)cc2)c2ccc(F)cc2)CC1 [Diacylglycerol Kinase Inhibitor II]
[1]; Well no.=597
  remaining activity at 1.25 µM: 93.5%
[1]; Well no.=2369
  remaining activity at 1.25 µM: 98.2%
[2]; Well no.=597
  remaining activity at 3.75 µM: 95.5%
[2]; Well no.=2369
  remaining activity at 3.75 µM: 99.1%

## CC1=Nc2ccc(Cl)cc2S(=O)(=O)N1 [Diazoxide]
[1]; Well no.=394
  remaining activity at 1.25 µM: 105%
[1]; Well no.=1804
  remaining activity at 1.25 µM: 92.9%
[2]; Well no.=394
  remaining activity at 3.75 µM: 101%
[2]; Well no.=1804
  remaining activity at 3.75 µM: 93.4%

## CN(C)CCN1C(=O)c2ccccc2N(C)c2ccccc21 [Dibenzepine]
[1]; Well no.=2096
  remaining activity at 1.25 µM: 97%
[2]; Well no.=2096
  remaining activity at 3.75 µM: 99.6%

## N#CC(c1ccc(Cl)cc1)c1c(Cl)cc(-n2ncc(=O)[nH]c2=O)cc1Cl (centres unmarked) [Diclazuril]
[1]; Well no.=5268
  remaining activity at 1.25 µM: 91.9%
[2]; Well no.=5268
  remaining activity at 3.75 µM: 96.8%

## O=C(O)Cc1ccccc1Nc1c(Cl)cccc1Cl [Diclofenac Diethylamine]
[1]; Well no.=5309
  remaining activity at 1.25 µM: 103%
[2]; Well no.=5309
  remaining activity at 3.75 µM: 98.6%

## O=C(O)Cc1ccccc1Nc1c(Cl)cccc1Cl [Diclofenac Potassium]
[1]; Well no.=5307
  remaining activity at 1.25 µM: 101%
[2]; Well no.=5307
  remaining activity at 3.75 µM: 100%

## O=C(O)Cc1ccccc1Nc1c(Cl)cccc1Cl [Diclofenac sodium]
[1]; Well no.=580
  remaining activity at 1.25 µM: 94%
[2]; Well no.=580
  remaining activity at 3.75 µM: 96.6%

## O=C(O)Cc1ccccc1Nc1c(Cl)cccc1Cl [Diclofenac]
[1]; Well no.=1978
  remaining activity at 1.25 µM: 102%
[2]; Well no.=1978
  remaining activity at 3.75 µM: 102%

## Cc1onc(-c2c(Cl)cccc2Cl)c1C(=O)N[C@@H]1C(=O)N2[C@@H]1SC(C)(C)[C@@H]2C(=O)O [Dicloxacillin Sodium]
[1]; Well no.=5360
  remaining activity at 1.25 µM: 90.3%
[2]; Well no.=5360
  remaining activity at 3.75 µM: 89.6%

## O=c1oc2ccccc2c(O)c1Cc1c(O)c2ccccc2oc1=O [Dicoumarol]
[1]; Well no.=3547
  remaining activity at 1.25 µM: 104%
[2]; Well no.=3547
  remaining activity at 3.75 µM: 105%

## O=c1[nH]cnc2c1ncn2[C@H]1CC[C@@H](CO)O1 [Didanosine]
[1]; Well no.=1868
  remaining activity at 1.25 µM: 97.7%
[2]; Well no.=1868
  remaining activity at 3.75 µM: 104%

## C[C@]12CCC3=C4CCC(=O)C=C4CC[C@H]3[C@@H]1CC[C@@]2(O)CC#N [Dienogest]
[1]; Well no.=5145
  remaining activity at 1.25 µM: 102%
[2]; Well no.=5145
  remaining activity at 3.75 µM: 102%

## O=C(O)CN(CCN(CC(=O)O)CC(=O)O)CCN(CC(=O)O)CC(=O)O [Diethylenetriaminepentaacetic acid]
[1]; Well no.=532
  remaining activity at 1.25 µM: 100%
[2]; Well no.=532
  remaining activity at 3.75 µM: 97.9%

## O=C(O)c1cc(-c2ccc(F)cc2F)ccc1O [Diflunisal]
[1]; Well no.=1984
  remaining activity at 1.25 µM: 102%
[2]; Well no.=1984
  remaining activity at 3.75 µM: 102%

## C[C@H]1O[C@@H](O[C@H]2[C@@H](O)C[C@H](O[C@H]3[C@@H](O)C[C@H](O[C@H]4CC[C@@]5(C)[C@H](CC[C@@H]6[C@@H]5CC[C@]5(C)[C@@H](C7=CC(=O)OC7)CC[C@]65O)C4)O[C@@H]3C)O[C@@H]2C)C[C@H](O)[C@@H]1O [Digitoxin]
[1]; Well no.=3463
  remaining activity at 1.25 µM: 104%
[2]; Well no.=3463
  remaining activity at 3.75 µM: 105%

## CCCCCC(=O)N[C@@H](Cc1ccc(O)cc1)C(=O)N[C@H](C(=O)NCCCCCC(N)=O)[C@@H](C)CC [Dihexa] (Hexanoyl-Tyr-Ile-[Ahx]-NH2)
[1]; Well no.=8646
  remaining activity at 1.25 µM: 98.6%
[2]; Well no.=8646
  remaining activity at 3.75 µM: 98.4%

## CCCCC/C=C\C/C=C\C/C=C\CCCCCCC(=O)O [Dihomo-γ-linolenic acid]
[1]; Well no.=4317
  remaining activity at 1.25 µM: 99%
[2]; Well no.=4317
  remaining activity at 3.75 µM: 99.1%

## CO[C@H]1CC=C2CCN3CCC4=C(CC(=O)OC4)[C@]23C1 [Dihydro-beta-erythroidine hydrobromide]
[1]; Well no.=690
  remaining activity at 1.25 µM: 88.8%
[2]; Well no.=690
  remaining activity at 3.75 µM: 88.6%

## CC(C)[C@@]1(NC(=O)[C@@H]2C[C@@H]3c4cccc5[nH]cc(c45)C[C@H]3N(C)C2)O[C@@]2(O)[C@@H]3CCCN3C(=O)[C@H](Cc3ccccc3)N2C1=O [Dihydroergocristine mesylate]
[1]; Well no.=3231
  remaining activity at 1.25 µM: 108%
[2]; Well no.=3231
  remaining activity at 3.75 µM: 105%

## CC(C)[C@@]1(NC(=O)[C@@H]2C[C@@H]3c4cccc5[nH]cc(c45)C[C@H]3N(C)C2)O[C@@]2(O)[C@@H]3CCCN3C(=O)[C@H](Cc3ccccc3)N2C1=O [Dihydroergocristine methanesulfonate]
[1]; Well no.=404
  remaining activity at 1.25 µM: 102%
[2]; Well no.=404
  remaining activity at 3.75 µM: 101%

## CC(C)[C@@]1(NC(=O)[C@@H]2C[C@@H]3c4cccc5[nH]cc(c45)C[C@H]3N(C)C2)O[C@@]2(O)[C@@H]3CCCN3C(=O)[C@H](Cc3ccccc3)N2C1=O [Dihydroergocristine]
[1]; Well no.=2098
  remaining activity at 1.25 µM: 104%
[2]; Well no.=2098
  remaining activity at 3.75 µM: 102%

## CN1C[C@H](C(=O)N[C@]2(C)O[C@@]3(O)[C@@H]4CCCN4C(=O)[C@H](Cc4ccccc4)N3C2=O)C[C@@H]2c3cccc4[nH]cc(c34)C[C@H]21 [Dihydroergotamine (mesylate)]
[1]; Well no.=6947
  remaining activity at 1.25 µM: 92.6%
[2]; Well no.=6947
  remaining activity at 3.75 µM: 92.7%

## CN1C[C@H](C(=O)N[C@]2(C)O[C@@]3(O)[C@@H]4CCCN4C(=O)[C@H](Cc4ccccc4)N3C2=O)C[C@@H]2c3cccc4[nH]cc(c34)C[C@H]21 [Dihydroergotamine mesylate]
[1]; Well no.=1701
  remaining activity at 1.25 µM: 98.4%
[2]; Well no.=1701
  remaining activity at 3.75 µM: 98.9%

## CN1C[C@H](C(=O)N[C@]2(C)O[C@@]3(O)[C@@H]4CCCN4C(=O)[C@H](Cc4ccccc4)N3C2=O)C[C@@H]2c3cccc4[nH]cc(c34)C[C@H]21 [Dihydroergotamine methanesulfonate]
[1]; Well no.=543
  remaining activity at 1.25 µM: 102%
[2]; Well no.=543
  remaining activity at 3.75 µM: 104%

## CC(C)[C@H]1CN[C@H](C(=O)O)[C@H]1CC(=O)O [Dihydrokainic acid]
[1]; Well no.=635
  remaining activity at 1.25 µM: 93.4%
[2]; Well no.=635
  remaining activity at 3.75 µM: 94%
